The values that follow come from EP3763226A1, “COMPOSITION FOR REDUCING HAIR LOSS AND IMPROVING HAIR GROWTH IN CASES OF ANDROGENETIC ALOPECIA” (Merz Pharma GmbH & Co. KGaA, priority 2019, dated 2021).

The subject of test [1] is ex-vivo Kultur von Haarfollikeln. To be noted: ex vivo culture of hair follicles; cited from earlier work.
The target in a further test is T1, 5-α-Reduktase Typ I (Homo sapiens, UniProt P18405).
T1 construct: expressed in transfected cells; host or cells: HEK293 (HEK I), stably transfected; gift of Prof; R. W. Hartmann, Saarland University; particulate fraction of the cell homogenate used
T1 sequence (P18405 1-259): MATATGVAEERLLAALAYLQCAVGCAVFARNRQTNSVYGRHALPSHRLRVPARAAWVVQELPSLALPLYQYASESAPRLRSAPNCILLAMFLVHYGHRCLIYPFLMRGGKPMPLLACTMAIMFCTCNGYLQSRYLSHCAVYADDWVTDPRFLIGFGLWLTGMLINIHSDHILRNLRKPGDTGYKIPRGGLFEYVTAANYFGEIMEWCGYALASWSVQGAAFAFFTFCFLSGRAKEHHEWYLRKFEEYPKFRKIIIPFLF
Nature of the test: Cell-free in vitro 5α-reductase type I inhibition assay (HEK I cell homogenate, androstenedione conversion, LC-HRMS). The test is classed as biochemical. To be noted: concentration giving 50% inhibition; Abbildung 1; read-out: IC50-Wert für die 5 alpha Reduktase vom Typ I.

The target of another test is T2, 5-α-Reduktase Typ II (Homo sapiens, UniProt P31213).
T2 sequence (P31213 1-254): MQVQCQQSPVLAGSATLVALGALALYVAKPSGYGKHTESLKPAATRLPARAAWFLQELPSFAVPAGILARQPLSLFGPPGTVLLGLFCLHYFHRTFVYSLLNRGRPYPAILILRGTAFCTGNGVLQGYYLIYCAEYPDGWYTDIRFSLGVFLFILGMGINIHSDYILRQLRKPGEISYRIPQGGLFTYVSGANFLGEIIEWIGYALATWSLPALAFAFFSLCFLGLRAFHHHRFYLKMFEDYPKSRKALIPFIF
Description: Cell-free in vitro 5α-reductase type II inhibition assay (HEK II cell homogenate, androstenedione conversion, LC-HRMS). It is filed as biochemical.

Description for 5-α-Reduktase Typ II: Die HEK I Zellen exprimieren rekombinante 5 alpha Reduktase vom Typ I, während die HEK II Zellen rekombinante 5 alpha Reduktase vom Typ II exprimieren.
HEK I und HEK II Zellen wurden in DMEM (Dulbecco's modified eagle medium, ccpro GmbH) (pH 7.4) mit 10 % FCS (Fetal calf serum, PAN), Penicillin/Streptomycin (100 U/ml und 100 µg/ml) und 0.5 mg/ml Geneticin-418-sulfat in einer befeuchteten 5 % CO2 Atmosphäre bei 37°C kultiviert.
Herstellung der 5-α-Reduktase Typ I und II enthaltenen Zellfraktionen: Für den Zell-freien in vitro assays wurden HEK I oder HEK II geerntet, durch Zentrifugation (500 x g) vom Zellkulturmedium befreit und re-suspended in einem Homogenisierungs-Puffer bestehend aus 50 mM Tris-HCI (pH 7.4), 300 mM Saccharose, 0.1 mM EDTA, 10 mM DTT and 100 µM PMSF. Durch Einfrieren bei - 196 °C und Auftauen auf Eis, wurden die Zellen solubilisiert. Nach einer Inkubations-Zeitraum von 30 min bei 4°C mit 1 mg/ml DNAse in 50 mM MgCl2 und zwischenzeitlich kräftigen Schütteln, wurde das erhaltene Homogenisat bei 20,200 x g in einer gekühlten Zentrifuge für 50 min bei 4°C zentrifugiert. Das Pellet wurde im Homogenisierungs-Puffer re-suspendiert und wieder bei 20,200 x g für 30 Minuten bei at 4°C zentrifugiert. Diese Prozedur wurde zweimal wiederholt. […] Der Protein-Gehalt wurde gemäß der BCA-Methode mit dem kommerziell erhältlichen BCA-Protein Assay Kit von Pierce quantifiziert. […]

Take `O=C(O[C@@H]1Cc2c(O)cc(O)cc2O[C@@H]1c1cc(O)c(O)c(O)c1)c1cc(O)c(O)c(O)c1` [Epigallocatechin-3-gallate]: the Haarwachstum entry in test [1] is “stimuliert”.
A word on the IC50: it is the concentration that gives 50% inhibition. Regarding `CC(C)(C)NC(=O)[C@H]1CC[C@H]2[C@@H]3CC[C@H]4NC(=O)C=C[C@]4(C)[C@H]3CC[C@]12C` [Finasterid], the IC50 on 5-α-Reduktase Typ I is 376 nM; at 5-α-Reduktase Typ II (concentration giving 50% inhibition, Abbildung 1, read-out: IC50-Wert für die 5 alpha Reduktase vom Typ II) it was 1.89 nM. At 5-α-Reduktase Typ II (ratio of the concentrations for 50% inhibition, type I vs type II), the “Wirkung auf die 5-alpha Reduktase vom Typ II stärker als auf Typ I” value was “ca. 200 fach”.
